Measured values taken from patent publication US7087620B2, “Liquid pharmaceutical formulations containing 3,7-diazabicyclo[3,3,1]nonane compounds and methods of treatment relating to anti-arrhythmic events” (Solvay Pharmaceuticals GmbH, priority 2002, dated 2006).
“Also recorded” adds a separate entry of the source.

Columns and labels:
Format in all cases: in vivo, human
healthy male subjects [1] = experiment: Two step infusion study in healthy male subjects: pharmacodynamics (12-lead ECG: QT, QTc, heart rate); details: for Pharmacodynamic action on QT, QTc interval and heart rate: over two hours post dosing
Procedure: (§1) A double-blind, placebo-controlled, randomized, single iv dose, two periods cross-over study to assess the safety, tolerability, pharmacodynamics and pharmacokinetics during and following a two step infusion of Tedisamil in healthy male subjects was performed with the following drug and dosages: Tedisamil dihydrochloride/0.4 mg/kg body weight infused over 30 minutes.
• 1. To assess safety and tolerability of tedisamil in healthy male subjects during and following a two step infusion scheme (0.4 mg/kg body weight infused over 30 minutes, with half of the dose infused over 10 minutes and half of the dose infused over the remaining 20 minutes). • 2. […] Methodology:
This was a single center, double-blind, placebo-controlled, randomized, single iv dose, two period cross-over study. Subjects were randomly allocated to either treatment sequence tedisamil-placebo or placebo-tedisamil. Number of patients (planned, screened, randomized and analyzed): Planned: 18, Screened: 27, Randomized: 18, Analyzed: 18 in PK/PD and safety analyses.
Subjects were included in the study only if they were healthy males, their age was in the range of 18-40 years (both inclusive), their body mass index (BMI) was between 18 kg/m^2 and 28 kg/m^2. Test product, dose and mode of administration: Tedisamil dihydrochloride; Strength: 2 mg/ml; Dose: 0.4 mg/kg body weight infused over 30 minutes, with half of the dose infused over 10 minutes and half of the dose infused over the remaining 20 minutes. Route: intravenous.
12-lead ECG.s were taken at several time points to explore the pharmacodynamic effects of Tedisamil (effects on QT and QTc) during and following infusion. The maximum value and maximum increase were derived for QTc and QT and the minimum value and maximum decrease were derived for heart rate. The AUC(0-24) and the maximum for the placebo-corrected QTc and QT and the AUC(0-24) and the minimum for the placebo-corrected heart rate were also calculated.
Descriptive statistics were performed for the ECG intervals QT, QTc, RR, PR, QRS and for heart rate by treatment (tedisamil, placebo and “tedisamil−placebo”) and time point. Individual and mean (arithmetic mean±1 SD) time profiles for ECG intervals and heart rate were graphically presented for both treatments.
Derived parameters, i.e. maximum value and maximum increase for QTc and QT, and minimum value and maximum decrease for heart rate were submitted to separate analyses of (co)variance (covariance only for maximum and minimum values) including subject, treatment, sequence, and period as class effects (and the individual pre-dose value as covariate). Point estimates and 95% confidence intervals were constructed for the difference “tedisamil−placebo” using the residual variance. Model assumptions were checked by visual inspection of residual plots. Additionally, descriptive statistics were calculated for the derived parameters per treatment and for the difference “tedisamil−placebo”.
Descriptive statistics for the placebo corrected AUC(0-24) of QTc, QT and heart rate and the placebo corrected maximum effect (maximum for QTc and QT and minimum for heart rate) were calculated. In addition, 95% confidence intervals were derived based on normally distributed outcomes.

healthy male subjects [2] = experiment: Two step infusion study in healthy male subjects: safety and tolerability; details: for Safety and tolerability: two step infusion of 0.4 mg tedisamil dihydrochloride per kg (0.32 mg/kg base)
Procedure: as §1
Screening assessments included physical examination, ECG, HIV/Hepatitis screening, blood pressure and heart rate measurements, clinical laboratory determinations, urine drug screen, alcohol breath test, and medical history. Follow-up assessments included physical examination, ECG, blood pressure and heart rate measurements, clinical laboratory determinations, and questions for adverse events and concomitant medication. During concomitant administration of Tedisamil, blood pressure, heart rate, and ECGs were recorded. Adverse events and concomitant medication were monitored throughout the study.
Subjects who received study medication, were considered valid for safety evaluation.
Treatment emergent adverse events, defined as any adverse event present at baseline that worsened or any event that began after treatment with study medication, were summarized by COSTART term for each treatment group. Each adverse event was evaluated for frequency of occurrence, duration, intensity, action taken, outcome, and relationship to administration of the study medication. Adverse events were listed for each subject.
Listings of abnormal or out of range values for each subject were presented for vital signs, laboratory assays, and physical examinations. Adverse events, blood pressure, heart rate and clinical laboratory data were analyzed descriptively and reviewed to evaluate the safety of all randomized subjects. Any clinical abnormalities were described.

[3] = system: patients with atrial fibrillation or flutter; experiment: Safety and tolerability of intravenous tedisamil in patients with atrial fibrillation or flutter
Procedure: The safety objective was: To determine the safety and tolerability of tedisamil versus placebo.
Safety was monitored regarding: Physical examination, ECG, 24-hour Holter monitoring, vital signs, laboratory evaluations and adverse events.
The intent-to-treat patient sample was analyzed for efficacy. All tests were two-sided and a p-value <0.05 was considered significant. Differences in percentages of conversion were compared among the treatment groups using the Pearson chi-square statistic. Safety analysis was conducted on the safety patient sample. Numbers and percentages of patients with adverse events were calculated for each treatment group, using MedDRA preferred terms and body systems. Descriptive statistics were summarized by treatment group for changes from baseline in QT, heart rate and blood pressure.
Physical examination, ECG, 24-hour Holter monitoring, vital signs, laboratory evaluations and adverse events.

[4] = 0.4 mg/kg tedisamil dihydrochloride iv, two step infusion over 30 minutes
[5] = difference tedisamil−placebo, analysis of covariance, 0.4 mg/kg iv two step infusion
[6] = difference tedisamil−placebo, analysis of variance, 0.4 mg/kg iv two step infusion
[7] = placebo-corrected, 0.4 mg/kg iv two step infusion
[8] = two-step infusion regimen, 0.4 and 0.6 mg/kg

Q: Which results are given for `C1CCC2(C1)C1CN(CC3CC3)CC2CN(CC2CC2)C1` [Tedisamil, N,N′-dicyclopropylmethyl-9,9-tetramethylene-3,7-diazabicyclo[3,3,1]nonane]?
A: Heart Rate Max. Decrease, Arith. Mean (SD) (healthy male subjects [1]; [4]): 10.6 (3.8) bpm; Heart Rate Minimum, Arith. Mean (SD) (healthy male subjects [1]; [4]): 49.2 (7.0) bpm; QT Interval Max. Increase, Arith. Mean (SD) (healthy male subjects [1]; [4]): 76.0 (22.4) ms; QT Interval Maximum, Arith. Mean (SD) (healthy male subjects [1]; [4]): 474.2 (39.2) ms; QTc Interval Max. Increase, Arith. Mean (SD) (healthy male subjects [1]; [4]): 61.1 (30.3) ms; QTc Interval Maximum, Arith. Mean (SD) (healthy male subjects [1]; [4]): 455.9 (30.0) ms; Heart Rate Minimum, Estimate (Ted-Pla) (healthy male subjects [1]; [5]): −4.01 bpm; QT Interval Maximum, Estimate (Ted-Pla) (healthy male subjects [1]; [5]): 58.4 ms; QTc Interval Maximum, Estimate (Ted-Pla) (healthy male subjects [1]; [5]): 34.0 ms; Heart Rate Max. Decrease, Estimate (Ted-Pla) (healthy male subjects [1]; [6]): 4.22 bpm; QT Interval Max. Increase, Estimate (Ted-Pla) (healthy male subjects [1]; [6]): 57.9 ms; QTc Interval Max. Increase, Estimate (Ted-Pla) (healthy male subjects [1]; [6]): 34.1 ms; Pharmacodynamic action on QT, QTc interval and heart rate (healthy male subjects [1]; two step infusion): a marked prolongation of QT and QTc interval and a distinct decrease in heart rate; also recorded: strong effect on QT, QTc and heart in the first two hours post dosing; Pharmacodynamic action on QT, QTc interval and heart rate (healthy male subjects [1]; two step infusion, listed as TEDI): a prolongation of QT and QTc intervals and a distinct decrease in heart rate; Placebo-corrected Heart Rate AUC(0-24), Mean (SD) (healthy male subjects [1]; [7]): −13.5 (11.5) bpm; Placebo-corrected Heart Rate Minimum, Mean (SD) (healthy male subjects [1]; [7]): −15.9 (6.0) bpm; Placebo-corrected QT Interval AUC(0-24), Mean (SD) (healthy male subjects [1]; [7]): 112.9 (382.9) ms; Placebo-corrected QT Interval Maximum, Mean (SD) (healthy male subjects [1]; [7]): 74.7 (36.7) ms; Placebo-corrected QTc Interval AUC(0-24), Mean (SD) (healthy male subjects [1]; [7]): 28.5 (170.5) ms; Placebo-corrected QTc Interval Maximum, Mean (SD) (healthy male subjects [1]; [7]): 63.9 (26.9) ms; Effect on AUC(0-24) values of QT, QTc and heart rate (healthy male subjects [1]; placebo-corrected, two step infusion): A significant effect of Tedisamil could not be found; Adverse events (AEs) (healthy male subjects [2]; 0.4 mg/kg iv two step infusion, all judged probably related (injection site reaction, pain injection site, paresthesia)): six AEs were observed in five subjects; Systolic and diastolic blood pressure change (healthy male subjects [2]; first four hours after dosing, 0.4 mg/kg iv two step infusion): small increase in the arithmetic mean of systolic and diastolic blood pressure; Pulse rate change (healthy male subjects [2]; first hour after dosing, 0.4 mg/kg iv two step infusion): decrease in pulse rate; Safety and tolerability (healthy male subjects [2]): safe and well tolerated; Safety and tolerability (healthy male subjects [2]; listed as TEDI): safe and well tolerated; TdP (Torsade de Point) ([3]; 30 min regimen, by gender): Almost all observed TdP (Torsade de Point) in 30 min regimen were in female patients; Gender difference in safety issues ([3]; first study (Phase II)): male patients show less safety issues than female patients; DC cardioversion required for treatment of VTs [3, 8]: no patient required DC cardioversion for treatment of VTs; Sustained polymorphic VT [3, 8]: no sustained polymorphic VT were observed; Tolerability in patients [3, 8]: well tolerated
